Assay: Air stability of the complexes (observation)
Type: physicochemical

[Fe(II)-ppy-tpy-Cl] [Complex R]
air stability: slightly air-sensitive in both the solid and solution states
